Test results: patent publication US6740642B2, “Macrolides with antibacterial activity” (BAsilea Parmaceutica AG, priority 2000, dated 2004)
≈ marks a conversion by molar mass, not a printed value.

How the values were obtained:
Assay in all cases: MIC, standard microdilution
[1] = tested on: E. coli ATCC25922; assay type: cell-based; settings: for MIC: Escherichia coli, read-out: minimum inhibitory concentration (MIC)
From the text: (§1) The antibacterial activities of the compounds have been determined by standard microdilution technique (National Committee for Clinical Laboratory Standards. 1997. Methods for dilution antimicrobial susceptibility tests for bacteria that grow aerobically, 4th edition. Approved standard M7-A4. National Committee for Clinical Laboratory Standards, Wayne, Pa.).

[2] = tested on: P. aeruginosa ATCC27853 (+Ery. 32 μg/ml); assay type: cell-based
From the text: as §1

[3] = tested on: S. aureus 1086; assay type: cell-based, Staphylococcus aureus; settings: for MIC: Staphylococcus aureus, read-out: minimum inhibitory concentration (MIC)
From the text: as §1

[4] = tested on: S. aureus 745; assay type: cell-based, Staphylococcus aureus; settings: for MIC: Staphylococcus aureus, read-out: minimum inhibitory concentration (MIC)
From the text: as §1

[5] = tested on: S. aureus ATCC29213; assay type: cell-based, Staphylococcus aureus; settings: for MIC: Staphylococcus aureus, read-out: minimum inhibitory concentration (MIC)
From the text: as §1

[6] = tested on: St. pneumoniae 12288; assay type: cell-based, Streptococcus pneumoniae; settings: for MIC: Streptococcus pneumoniae, read-out: minimum inhibitory concentration (MIC)
From the text: as §1

[7] = tested on: St. pneumoniae 1/4; assay type: cell-based, Streptococcus pneumoniae; settings: for MIC: Streptococcus pneumoniae, read-out: minimum inhibitory concentration (MIC)
From the text: as §1

[8] = tested on: St. pneumoniae SL199T; assay type: cell-based, Streptococcus pneumoniae; settings: for MIC: Streptococcus pneumoniae, read-out: minimum inhibitory concentration (MIC)
From the text: as §1

[9] = tested on: St. pneumoniae 1/1; assay type: cell-based, Streptococcus pneumoniae; settings: for MIC: Streptococcus pneumoniae, read-out: minimum inhibitory concentration (MIC)
From the text: as §1

Row | SMILES | MIC [1] | minimum inhibitory concentration (MIC) [2] | MIC [3] | MIC [4] | MIC [5] | MIC [6] | MIC [7] | MIC [8] | MIC [9] | minimum inhibitory concentration (MIC) [1] | minimum inhibitory concentration (MIC) [3] | minimum inhibitory concentration (MIC) [4] | minimum inhibitory concentration (MIC) [5] | minimum inhibitory concentration (MIC) [6] | minimum inhibitory concentration (MIC) [7] | minimum inhibitory concentration (MIC) [8] | minimum inhibitory concentration (MIC) [9]
1 | CC[C@H]1OC(=O)[C@H](C)C(=O)[C@H](C)[C@@H](O[C@@H]2O[C@H](C)C[C@H](N(C)C)[C@H]2O)[C@](C)(OC)C[C@@H](C)C(=O)[C@H](C)[C@H]2[C@H](SCCn3ccc(-c4ccncc4)n3)C(=O)O[C@@]21C [Compound I-19, (3S,3aR,4R,6R,8R,9R,10R,12R,15R,15aS)-15-Ethyloctahydro-8-methoxy-4,6,8,10,12,15a-hexamethyl-3-[[2-[3-(4-pyridinyl)-1H-pyrazol-1-yl]ethyl]thio]-9-[[3,4,6-trideoxy-3-(dimethylamino)-β-D-xylo-hexopyranosyl]oxy]-2H-furo[2,3-c]oxacyclotetradecin-2,5,11,13(3H,6H,12H)-tetrone] | > 16 µg/mL | >16 µg/mL | ≤ 0.12 µg/mL | > 16 µg/mL | ≤ 0.12 µg/mL | 4 µg/mL (≈ 4.91 µM) | ≤ 0.12 µg/mL | 1 µg/mL (≈ 1.23 µM) | ≤ 0.12 µg/mL |  |  |  |  |  |  |  | 
2 | CC[C@H]1OC(=O)[C@H](C)C(=O)[C@H](C)[C@@H](O[C@@H]2O[C@H](C)C[C@H](N(C)C)[C@H]2O)[C@](C)(OC)C[C@@H](C)C(=O)[C@H](C)[C@H]2[C@H](SCCn3cnc(-c4cccnc4)c3)C(=O)O[C@@]21C [Compound I-20, (3S,3aR,4R,6R,8R,9R,10R,12R,15R,15aS)-15-Ethyloctahydro-8-methoxy-4,6,8,10,12,15a-hexamethyl-3-[[2-[4-(3-pyridinyl)-1H-imidazol-1-yl]ethyl]thio]-9-[[3,4,6-trideoxy-3-(dimethylamino)-β-D-xylo-hexopyranosyl]oxy]-2H-furo[2,3-c]oxacyclotetradecin-2,5,11,13(3H,6H,12H)-tetrone] | > 16 µg/mL | >16 µg/mL | 0.25 µg/mL (≈ 0.307 µM) | > 16 µg/mL | 0.25 µg/mL (≈ 0.307 µM) | 2 µg/mL (≈ 2.45 µM) | ≤ 0.12 µg/mL | 2 µg/mL (≈ 2.45 µM) | ≤ 0.12 µg/mL |  |  |  |  |  |  |  | 
3 | CC[C@H]1OC(=O)[C@H](C)C(=O)[C@H](C)[C@@H](O[C@@H]2O[C@H](C)C[C@H](N(C)C)[C@H]2O)[C@](C)(OC)C[C@@H](C)C(=O)[C@H](C)[C@H]2[C@H](SCCn3cncn3)C(=O)O[C@@]21C [Compound I-21, (3S,3aR,4R,6R,8R,9R,10R,12R,15R,15aS)-15-Ethyloctahydro-8-methoxy-4,6,8,10,12,15a-hexamethyl-3-[[2-[1H-1,2,4-triazol-1-yl]ethyl]thio]-9-[[3,4,6-trideoxy-3-(dimethylamino)-β-D-xylo-hexopyranosyl]oxy]-2H-furo[2,3-c]oxacyclotetradecin-2,5,11,13(3H,6H,12H)-tetrone] | > 16 µg/mL | >16 µg/mL | 0.25 µg/mL (≈ 0.338 µM) | > 16 µg/mL | 0.25 µg/mL (≈ 0.338 µM) | > 16 µg/mL | > 16 µg/mL | 8 µg/mL (≈ 10.8 µM) | ≤ 0.12 µg/mL |  |  |  |  |  |  |  | 
4 | CC[C@H]1OC(=O)[C@H](C)C(=O)[C@H](C)[C@@H](O[C@@H]2O[C@H](C)C[C@H](N(C)C)[C@H]2O)[C@](C)(OC)C[C@@H](C)C(=O)[C@H](C)[C@H]2[C@H](SCCn3ccnc3)C(=O)O[C@@]21C [Compound I-22] |  | >16 µg/mL |  |  |  |  |  |  |  | >16 µg/mL | 0.25 µg/mL (≈ 0.339 µM) | >16 µg/mL | 0.25 µg/mL (≈ 0.339 µM) | >16 µg/mL | 1 µg/mL (≈ 1.36 µM) | 8 µg/mL (≈ 10.8 µM) | <=0.12 μg/ml
5 | CC[C@H]1OC(=O)[C@H](C)C(=O)[C@H](C)[C@@H](O[C@@H]2O[C@H](C)C[C@H](N(C)C)[C@H]2O)[C@](C)(OC)C[C@@H](C)C(=O)[C@H](C)[C@H]2[C@H](S(=O)(=O)CCCc3ccccc3)C(=O)O[C@@]21C [Compound I-24, (3S,3aR,4R,6R,8R,9R,10R,12R,15R,15aS)-15-Ethyloctahydro-8-methoxy-4,6,8,10,12,15a-hexamethyl-3-[(3-phenylpropyl)sulfonyl]-9-[[3,4,6-trideoxy-3-(dimethylamino)-β-D-xylo-hexopyranosyl]oxy]-2H-furo[2,3-c]oxacyclotetradecin-2,5,11,13(3H,6H,12H)-tetrone] | > 16 µg/mL | >16 µg/mL | 1 µg/mL (≈ 1.26 µM) | > 16 µg/mL | 1 µg/mL (≈ 1.26 µM) | 16 µg/mL (≈ 20.2 µM) | 1 µg/mL (≈ 1.26 µM) | 16 µg/mL (≈ 20.2 µM) | ≤ 0.5 µg/mL |  |  |  |  |  |  |  | 
6 | CC[C@H]1OC(=O)[C@H](C)C(=O)[C@H](C)[C@@H](O[C@@H]2O[C@H](C)C[C@H](N(C)C)[C@H]2O)[C@](C)(OC)C[C@@H](C)C(=O)[C@H](C)[C@H]2[C@H](SCCCn3cnc4c(N)ncnc43)C(=O)O[C@@]21C [Compound I-26, (3S,3aR,4R,6R,8R,9R,10R,12R,15R,15aS)-3-[[3-[6-Amino-9H-purine-9-yl]propyl]thio]-15-ethyloctahydro-8-methoxy-4,6,8,10,12,15a-hexamethyl-9-[[3,4,6-trideoxy-3-(dimethylamino)-β-D-xylo-hexopyranosyl]oxy]-2H-furo[2,3-c]oxacyclotetradecin-2,5,11,13(3H,6H,12H)-tetrone] | 16 µg/mL (≈ 19.5 µM) | >16 µg/mL | ≤ 0.12 µg/mL | > 16 µg/mL | ≤ 0.12 µg/mL | 0.25 µg/mL (≈ 0.305 µM) | ≤ 0.25 µg/mL | ≤ 0.25 µg/mL | ≤ 0.25 µg/mL |  |  |  |  |  |  |  | 
7 | CO[C@@H]1[C@@H](O[C@@H]2O[C@H](C)[C@@H](O[C@H]3C[C@@](C)(O)[C@@H](OC(=O)CC(C)C)[C@H](C)O3)[C@H](N(C)C)[C@H]2O)[C@@H](CC=O)C[C@@H](C)[C@@H](O)/C=C/C=C/C[C@@H](C)OC(=O)C[C@H]1OC(C)=O [Josamycin, reference compound] | > 16 µg/mL | >16 µg/mL | 2 µg/mL (≈ 2.42 µM) | > 16 µg/mL | 2 µg/mL (≈ 2.42 µM) | > 16 µg/mL | ≤ 4 µg/mL | > 16 µg/mL | ≤ 0.12 µg/mL |  |  |  |  |  |  |  | 

Continued, values first:

Row | MIC [1] | minimum inhibitory concentration (MIC) [2] | MIC [3] | MIC [4] | MIC [5] | MIC [6] | MIC [7] | MIC [8] | MIC [9] | minimum inhibitory concentration (MIC) [1] | minimum inhibitory concentration (MIC) [3] | minimum inhibitory concentration (MIC) [4] | minimum inhibitory concentration (MIC) [5] | minimum inhibitory concentration (MIC) [6] | minimum inhibitory concentration (MIC) [7] | minimum inhibitory concentration (MIC) [8] | minimum inhibitory concentration (MIC) [9] | SMILES
8 | > 16 µg/mL | >16 µg/mL | ≤ 0.25 µg/mL | > 16 µg/mL | ≤ 0.25 µg/mL | > 32 µg/mL | 8 µg/mL (≈ 12.6 µM) | 32 µg/mL (≈ 50.3 µM) | ≤ 0.5 µg/mL |  |  |  |  |  |  |  |  | CC[C@H]1OC(=O)[C@H](C)C(=O)[C@H](C)[C@@H](O[C@@H]2O[C@H](C)C[C@H](N(C)C)[C@H]2O)[C@](C)(OC)C[C@@H](C)C(=O)[C@H](C)[C@H]2[C@H](C#N)C(=O)O[C@@]21C [Compound I-23, (3R,3aS,4R,6R,8R,9R,10R,12R,15R,15aS)-15-Ethyltetradecahydro-8-methoxy-4,6,8,10,12,15a-hexamethyl-2,5,11,13-tetraoxo-9-[[3,4,6-trideoxy-3-(dimethylamino)-β-D-xylo-hexopyranosyl]oxy]-2H-furo[2,3-c]oxacyclotetradecin-3-carbonitrile]
9 | > 16 µg/mL | >16 µg/mL | 0.5 µg/mL (≈ 0.817 µM) | > 16 µg/mL | 0.5 µg/mL (≈ 0.817 µM) | > 16 µg/mL | 16 µg/mL (≈ 26.2 µM) | > 16 µg/mL | ≤ 0.12 µg/mL |  |  |  |  |  |  |  |  | CC[C@H]1OC(=O)[C@H](C)C(=O)[C@H](C)[C@@H](O[C@@H]2O[C@H](C)C[C@H](N(C)C)[C@H]2O)[C@](C)(OC)C[C@@H](C)C(=O)[C@H](C)[C@H]2CC(=O)O[C@@]21C [Compound I-25, (3aR,4R,6R,8R,9R,10R,12R,15R,15aS)-15-Ethyloctahydro-8-methoxy-4,6,8,10,12,15a-hexamethyl-9-[[3,4,6-trideoxy-3-(dimethylamino)-β-D-xylo-hexopyranosyl]oxy]-2H-furo[2,3-c]oxacyclotetradecin-2,5,11,13 (3H,6H,12H)-tetrone]
10 |  | >16 µg/mL |  |  |  |  |  |  |  | >16 µg/mL | 1 µg/mL (≈ 1.2 µM) | >16 µg/mL | 0.25 µg/mL (≈ 0.3 µM) | 2 µg/mL (≈ 2.4 µM) | <=0.25 μg/ml | 1 µg/mL (≈ 1.2 µM) | <=0.25 μg/ml | CC[C@H]1OC(=O)[C@H](C)C(=O)[C@H](C)[C@@H](O[C@@H]2O[C@H](C)C[C@H](N(C)C)[C@H]2O)[C@](C)(OC)C[C@@H](C)C(=O)[C@H](C)[C@H]2[C@H](SCCn3cnc4c(N(C)C)ncnc43)C(=O)O[C@@]21C [Compound I-27, (3S,3aR,4R,6R,8R,9R,10R,12R,15R,15aS)-3-[[2-[6-N,N-Dimethylamino-9H-purine-9-yl]ethyl]thio]-15-ethyloctahydro-8-methoxy-4,6,8,10,12,15a-hexamethyl-9-[[3,4,6-trideoxy-3-(dimethylamino)-β-D-xylo-hexopyranosyl]oxy]-2H-furo[2,3-c]oxacyclotetradecin-2,5,11,13(3H,6H,12H)-tetrone]
